According to patent US20260356856A1, “KRAS G12S AND G12C INHIBITORS” (MIRATI THERAPEUTICS, INC., priority 2023, published 2026):

Key:
Assay in all cases: KRas binding assay, TR-FRET displacement of Cy5 labelled tracer
Settings in all cases: 60-minute incubation at room temperature, 1% DMSO, pH 7.5
KRas G12C = molecular target: T1, KRas G12C (Homo sapiens, UniProt P01116, G12C)
T1 construct: Biotinylated KRas (corresponding to amino acids 1-169, produced at Accelegan Inc.); biotin (biotinylated); purchased Accelegan Inc
Procedure: (§1) This Example illustrates that exemplary compounds of the present invention bind to KRas and are capable of displacing a labeled tracer ligand occupying the KRas binding site. KRas^WT, KRas^G12A, KRas^G12C, KRas^G12D, KRas^G12R, KRas^G12S, KRas^G12V, KRas^G13D, or KRas^Q61H was used in the assay.
(§2) The ability of a compound to bind to KRas was measured using a TR-FRET displacement assay. Biotinylated KRas (corresponding to amino acids 1-169, produced at Accelegan Inc.) was incubated with custom made Cy5 labelled tracer, terbium streptavidin (Cisbio Inc.) and compound (1% DMSO final) in buffer (50 mM HEPES, pH 7.5, 5 mM MgCl2, 0.005% Tween-20 and 1 mM DTT). After a 60-minute incubation at room temperature, the reaction was measured using a BMG LABTECH CLARIO star Plus via TR-FRET. […] The POC values were fit to a 4-parameter IC50 equation and the IC50 value reported.

KRas G12S = molecular target: T2, KRas G12S (Homo sapiens, UniProt P01116, G12S)
T2 construct: Biotinylated KRas (corresponding to amino acids 1-169, produced at Accelegan Inc.); biotin (biotinylated); purchased Accelegan Inc
Procedure: as §1, §2

KRas WT = molecular target: T3, KRas WT (Homo sapiens, UniProt P01116)
T3 construct: Biotinylated KRas (corresponding to amino acids 1-169, produced at Accelegan Inc.); biotin (biotinylated); purchased Accelegan Inc
Procedure: as §1, §2

T2 sequence (P01116 1-169 isoform P01116-2 G12S): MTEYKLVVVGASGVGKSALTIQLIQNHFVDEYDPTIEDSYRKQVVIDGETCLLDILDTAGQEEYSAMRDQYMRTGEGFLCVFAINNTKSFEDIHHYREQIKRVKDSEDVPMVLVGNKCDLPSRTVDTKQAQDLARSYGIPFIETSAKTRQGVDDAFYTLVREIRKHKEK
T3 sequence (P01116 1-169 isoform P01116-2): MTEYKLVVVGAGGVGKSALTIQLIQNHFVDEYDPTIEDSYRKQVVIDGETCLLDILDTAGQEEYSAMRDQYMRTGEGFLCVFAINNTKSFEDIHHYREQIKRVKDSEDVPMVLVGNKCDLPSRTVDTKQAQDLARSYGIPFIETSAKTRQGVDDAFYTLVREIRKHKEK
T1 sequence (P01116 1-169 isoform P01116-2 G12C): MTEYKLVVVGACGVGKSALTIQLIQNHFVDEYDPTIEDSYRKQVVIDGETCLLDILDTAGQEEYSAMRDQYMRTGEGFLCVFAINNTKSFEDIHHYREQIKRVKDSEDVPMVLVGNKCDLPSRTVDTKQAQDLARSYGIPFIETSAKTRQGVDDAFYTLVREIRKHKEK

Structure (SMILES)	IC50 (KRas G12C)	IC50 (KRas G12S)	IC50 (KRas WT)
O=C1OCCN1C(=O)C1CCN(c2nc(OCC34CCCN3CCC4)nc3c(F)c(-c4cccc5cccc(F)c45)ncc23)CC1 [Example 2, 3-(1-(8-fluoro-7-(8-fluoronaphthalen-1-yl)-2-((tetrahydro-1H-pyrrolizin-7a(5H)-yl)methoxy)pyrido[4,3-d]pyrimidin-4-yl)piperidine-4-carbonyl)oxazolidin-2-one]	> 100000 nM	72500 nM	73900 nM
O=C(Nc1ccccn1)C1CCN(c2nc(OCC34CCCN3CCC4)nc3c(F)c(-c4cccc5cccc(F)c45)ncc23)CC1 [Example 3, 1-(8-fluoro-7-(8-fluoronaphthalen-1-yl)-2-((tetrahydro-1H-pyrrolizin-7a(5H)-yl)methoxy)pyrido[4,3-d]pyrimidin-4-yl)-N-(pyridin-2-yl)piperidine-4-carboxamide]	582 nM	346 nM	649 nM
O=C(Oc1c(F)cccc1F)[C@@H]1[C@@H]2C[C@H]1CN(c1nc(OCC34CCCN3CCC4)nc3c(F)c(-c4cccc5cccc(F)c45)ncc13)C2 [Example 5, 2,6-difluorophenyl (1R,5S,6r)-3-(8-fluoro-7-(8-fluoronaphthalen-1-yl)-2-((tetrahydro-1H-pyrrolizin-7a(5H)-yl)methoxy)pyrido[4,3-d]pyrimidin-4-yl)-3-azabicyclo[3.1.1]heptane-6-carboxylate]	7570 nM	26500 nM	34400 nM
O=C(Oc1c(F)cccc1F)[C@H]1[C@@H]2C[C@H]1CN(c1nc(OCC34CCCN3CCC4)nc3c(F)c(-c4cccc5cccc(F)c45)ncc13)C2 [Example 6, 2,6-difluorophenyl (1R,5S,6s)-3-(8-fluoro-7-(8-fluoronaphthalen-1-yl)-2-((tetrahydro-1H-pyrrolizin-7a(5H)-yl)methoxy)pyrido[4,3-d]pyrimidin-4-yl)-3-azabicyclo[3.1.1]heptane-6-carboxylate]	10600 nM	7950 nM	8060 nM
O=C(Oc1ccc(F)cc1)[C@@H]1[C@@H]2C[C@H]1CN(c1nc(OCC34CCCN3CCC4)nc3c(F)c(-c4cccc5cccc(F)c45)ncc13)C2 [Example 7, 4-fluorophenyl (1R,5S,6r)-3-(8-fluoro-7-(8-fluoronaphthalen-1-yl)-2-((tetrahydro-1H-pyrrolizin-7a(5H)-yl)methoxy)pyrido[4,3-d]pyrimidin-4-yl)-3-azabicyclo[3.1.1]heptane-6-carboxylate]	20400 nM	21200 nM	24200 nM
O=C(Oc1ccc(F)cc1)[C@H]1[C@@H]2C[C@H]1CN(c1nc(OCC34CCCN3CCC4)nc3c(F)c(-c4cccc5cccc(F)c45)ncc13)C2 [Example 8, 4-fluorophenyl (1R,5S,6s)-3-(8-fluoro-7-(8-fluoronaphthalen-1-yl)-2-((tetrahydro-1H-pyrrolizin-7a(5H)-yl)methoxy)pyrido[4,3-d]pyrimidin-4-yl)-3-azabicyclo[3.1.1]heptane-6-carboxylate]	> 100000 nM	> 100000 nM	> 100000 nM
Cc1cc(C)n(C(=O)C2CCN(c3nc(OCC45CCCN4CCC5)nc4c(F)c(-c5cccc6cccc(F)c56)ncc34)CC2)n1 [Example 9, (3,5-dimethyl-1H-pyrazol-1-yl)(1-(8-fluoro-7-(8-fluoronaphthalen-1-yl)-2-((tetrahydro-1H-pyrrolizin-7a(5H)-yl)methoxy)pyrido[4,3-d]pyrimidin-4-yl)piperidin-4-yl)methanone]	30600 nM	31500 nM	64600 nM
Cc1ccn(C(=O)C2CCN(c3nc(OCC45CCCN4CCC5)nc4c(F)c(-c5cccc6cccc(F)c56)ncc34)CC2)n1 [Example 10, (1-(8-fluoro-7-(8-fluoronaphthalen-1-yl)-2-((tetrahydro-1H-pyrrolizin-7a(5H)-yl)methoxy)pyrido[4,3-d]pyrimidin-4-yl)piperidin-4-yl)(3-methyl-1H-pyrazol-1-yl)methanone]	19600 nM	4670 nM	43900 nM
O=C(C1CCN(c2nc(OCC34CCCN3CCC4)nc3c(F)c(-c4cccc5cccc(F)c45)ncc23)CC1)n1cccn1 [Example 11, (1-(8-fluoro-7-(8-fluoronaphthalen-1-yl)-2-((tetrahydro-1H-pyrrolizin-7a(5H)-yl)methoxy)pyrido[4,3-d]pyrimidin-4-yl)piperidin-4-yl)(1H-pyrazol-1-yl)methanone]	8160 nM	3840 nM	9270 nM
O=C(Oc1c(F)cc(F)cc1F)C1CCN(c2nc(OCC34CCCN3CCC4)nc3c(F)c(-c4cccc5cccc(F)c45)ncc23)CC1 [Example 12, 2,4,6-trifluorophenyl 1-(8-fluoro-7-(8-fluoronaphthalen-1-yl)-2-((tetrahydro-1H-pyrrolizin-7a(5H)-yl)methoxy)pyrido[4,3-d]pyrimidin-4-yl)piperidine-4-carboxylate]	808 nM	59600 nM	48500 nM
O=C(Oc1ccc(F)cc1F)C1CCN(c2nc(OCC34CCCN3CCC4)nc3c(F)c(-c4cccc5cccc(F)c45)ncc23)CC1 [Example 13, 2,4-difluorophenyl 1-(8-fluoro-7-(8-fluoronaphthalen-1-yl)-2-((tetrahydro-1H-pyrrolizin-7a(5H)-yl)methoxy)pyrido[4,3-d]pyrimidin-4-yl)piperidine-4-carboxylate]	272 nM	39000 nM	28700 nM
O=C(Oc1ccc(F)cc1)C1CCN(c2nc(OCC34CCCN3CCC4)nc3c(F)c(-c4cccc5cccc(F)c45)ncc23)CC1 [Example 14, 4-fluorophenyl 1-(8-fluoro-7-(8-fluoronaphthalen-1-yl)-2-((tetrahydro-1H-pyrrolizin-7a(5H)-yl)methoxy)pyrido[4,3-d]pyrimidin-4-yl)piperidine-4-carboxylate]	877 nM	> 100000 nM	45000 nM
O=C[C@@H]1[C@@H]2CC[C@H]1CN(c1nc(OCC34CCCN3CCC4)nc3c(F)c(-c4cccc5cccc(F)c45)ncc13)C2 [Example 17, (1R,5S,8r)-3-(8-fluoro-7-(8-fluoronaphthalen-1-yl)-2-((tetrahydro-1H-pyrrolizin-7a(5H)-yl)methoxy)pyrido[4,3-d]pyrimidin-4-yl)-3-azabicyclo[3.2.1]octane-8-carbaldehyde]	1080 nM	15300 nM	5780 nM
O=C(OCC(F)(F)F)[C@@H]1[C@@H]2CC[C@H]1CN(c1nc(OCC34CCCN3CCC4)nc3c(F)c(-c4cccc5cccc(F)c45)ncc13)C2 [Example 18, 2,2,2-trifluoroethyl (1R,5S,8r)-3-(8-fluoro-7-(8-fluoronaphthalen-1-yl)-2-((tetrahydro-1H-pyrrolizin-7a(5H)-yl)methoxy)pyrido[4,3-d]pyrimidin-4-yl)-3-azabicyclo[3.2.1]octane-8-carboxylate]	42100 nM	30000 nM	7970 nM
COC(=O)[C@@H]1[C@@H]2CC[C@H]1CN(c1nc(OCC34CCCN3CCC4)nc3c(F)c(-c4cccc5cccc(F)c45)ncc13)C2 [Example 19, methyl (1R,5S,8s)-3-(8-fluoro-7-(8-fluoronaphthalen-1-yl)-2-((tetrahydro-1H-pyrrolizin-7a(5H)-yl)methoxy)pyrido[4,3-d]pyrimidin-4-yl)-3-azabicyclo[3.2.1]octane-8-carboxylate]	20100 nM	7460 nM	2800 nM
N#Cc1ccc(OC(=O)[C@@H]2[C@@H]3CC[C@H]2CN(c2nc(OCC45CCCN4CCC5)nc4c(F)c(-c5cccc6cccc(F)c56)ncc24)C3)cc1 [Example 20, 4-cyanophenyl (1R,5S,8r)-3-(8-fluoro-7-(8-fluoronaphthalen-1-yl)-2-((tetrahydro-1H-pyrrolizin-7a(5H)-yl)methoxy)pyrido[4,3-d]pyrimidin-4-yl)-3-azabicyclo[3.2.1]octane-8-carboxylate]	27300 nM	98800 nM	14700 nM
O=C(Oc1ccc(F)c(F)c1)C1CCCN(c2nc(OCC34CCCN3CCC4)nc3c(F)c(-c4cccc5cccc(F)c45)ncc23)CC1 (stereo not drawn) [Example 48, 3,4-difluorophenyl 1-(8-fluoro-7-(8-fluoronaphthalen-1-yl)-2-((tetrahydro-1H-pyrrolizin-7a(5H)-yl)methoxy)pyrido[4,3-d]pyrimidin-4-yl) azepane-4-carboxylate]	2740 nM	30100 nM	
COC(=O)C1CCCN(c2nc(OCC34CCCN3CCC4)nc3c(F)c(-c4cccc5cccc(F)c45)ncc23)CC1 (stereo not drawn) [Example 49, methyl 1-(8-fluoro-7-(8-fluoronaphthalen-1-yl)-2-((tetrahydro-1H-pyrrolizin-7a(5H)-yl)methoxy)pyrido[4,3-d]pyrimidin-4-yl) azepane-4-carboxylate]	65900 nM	54800 nM	
O=C(Oc1ccc(C(F)(F)F)cc1)C1CCCN(c2nc(OCC34CCCN3CCC4)nc3c(F)c(-c4cccc5cccc(F)c45)ncc23)CC1 (stereo not drawn) [Example 50, 4-(trifluoromethyl)phenyl 1-(8-fluoro-7-(8-fluoronaphthalen-1-yl)-2-((tetrahydro-1H-pyrrolizin-7a(5H)-yl)methoxy)pyrido[4,3-d]pyrimidin-4-yl) azepane-4-carboxylate]	3440 nM	55600 nM	
